This note sets out measurements from patent US9447028B2, “Therapeutic aryl-amido-aryl compounds and their use” (King's College London, priority 2009, dated 2016).

Molecules are shown by their SMILES.

Type in all cases: cell-based
In one assay the target is T1, RARγ (Homo sapiens, UniProt P13631).
T1 construct: gal4 (fusion partner); expressed in transfected cells; host or cells: COS-7
T1 sequence (P13631 185-419 limits assumed): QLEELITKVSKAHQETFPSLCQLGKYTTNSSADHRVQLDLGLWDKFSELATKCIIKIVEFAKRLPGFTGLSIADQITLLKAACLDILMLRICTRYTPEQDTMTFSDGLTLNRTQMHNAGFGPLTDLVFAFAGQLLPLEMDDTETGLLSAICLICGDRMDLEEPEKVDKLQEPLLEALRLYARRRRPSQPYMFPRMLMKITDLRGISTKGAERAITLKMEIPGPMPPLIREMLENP
Nature of the assay: Transactivation assay for RAR gamma (gal4-RAR fusion, luciferase reporter, COS-7 cells). The following applies: ratio of test compound EC50 to that of atRA; inactive = no agonist action at the highest concentration tested. A digest of the protocol: (§1)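 COS-7 cells co-transfected with gal4–RAR ligand-binding-domain fusion and pFR-luc reporter, then treated with compound in phenol-red-free DMEM (1% DMSO) for about one day. Luciferase read after lysis with BrightGlo; EC50 values from replicate experiments given as a ratio of means.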

The target in another assay is T2, RARβ (Homo sapiens, UniProt P10826).
T2 construct: gal4 (fusion partner); expressed in transfected cells; host or cells: COS-7
T2 sequence (P10826 183-417 limits assumed): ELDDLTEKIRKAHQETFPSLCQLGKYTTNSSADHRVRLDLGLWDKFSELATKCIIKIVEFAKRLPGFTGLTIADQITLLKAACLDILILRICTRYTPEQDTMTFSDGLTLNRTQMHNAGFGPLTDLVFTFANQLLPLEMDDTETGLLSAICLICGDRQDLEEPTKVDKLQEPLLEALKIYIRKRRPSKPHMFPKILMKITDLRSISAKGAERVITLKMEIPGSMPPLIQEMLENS
Description: Transactivation assay for RAR beta (gal4-RAR fusion, luciferase reporter, COS-7 cells). The following applies: ratio of test compound EC50 to that of atRA; inactive = no agonist action at the highest concentration tested. The procedure, abridged: as §1
Background: A reporter such as luciferase makes a cellular process visible.

The target in another assay is T3, RARα (Homo sapiens, UniProt P10276).
T3 construct: gal4 (fusion partner); expressed in transfected cells; host or cells: COS-7
T3 sequence (P10276 183-417 limits assumed): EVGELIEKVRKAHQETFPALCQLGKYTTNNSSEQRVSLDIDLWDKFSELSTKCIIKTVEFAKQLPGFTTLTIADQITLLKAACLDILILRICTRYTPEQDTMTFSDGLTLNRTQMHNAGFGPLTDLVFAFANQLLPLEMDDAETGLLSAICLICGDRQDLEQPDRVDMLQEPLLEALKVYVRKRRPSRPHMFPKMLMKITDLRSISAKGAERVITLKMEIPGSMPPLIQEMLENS
Description: Transactivation assay for RAR alpha (gal4-RAR fusion, luciferase reporter, COS-7 cells). Particulars: for RARα/RARβ ratio (*): fold-selectivity for RARα over RARβ; for RARα activity ratio: ratio of test compound EC50 to that of atRA on the same plate. A digest of the protocol:
as §1

With `COc1c(Cl)cc(C(=O)Nc2ccc(C(=O)O)cc2)cc1OC1CCC1` [AAA-098, 4-(3-Chloro-5-cyclobutoxy-4-methoxybenzamido)benzoic acid], the RARγ activity ratio on RARγ came to 2955. In addition, on RARβ, the RARβ activity ratio turned out to be 433. For the same molecule, at RARα, the “RARα/RARβ ratio (*)” value was 36 and the RARα activity ratio stood at 12.

Regarding `COc1c(Cl)cc(C(=O)Nc2ccc(C(=O)O)c(C)c2)cc1OC1CCC1` [AAA-099, 4-(3-Chloro-5-cyclobutoxy-4-methoxybenzamido)-2-methylbenzoic acid], the RARγ activity ratio on RARγ is 89. The RARβ activity ratio on RARβ was determined as 655. For the same molecule, at RARα, the “RARα/RARβ ratio (*)” value amounted to 59 and the RARα activity ratio came out at 11.

Regarding `COc1c(Cl)cc(C(=O)Nc2ccc(C(=O)O)c(F)c2)cc1OC1CCC1` [AAA-100, 4-(3-Chloro-5-cyclobutoxy-4-methoxybenzamido)-2-fluorobenzoic acid], at RARγ, the RARγ activity ratio is given as 11818. The RARβ activity ratio at RARβ amounted to 3273. At RARα, the “RARα/RARβ ratio (*)” value is 99 and the RARα activity ratio is listed as 33.

In the case of `CCC(CC)Oc1cc(C(=O)Nc2ccc(C(=O)O)cc2)cc(Cl)c1OC` [AAA-101, 4-(3-Chloro-4-methoxy-5-(pentan-3-yloxy)benzamido)benzoic acid], the RARγ activity ratio at RARγ is listed as 375. Also, the RARβ activity ratio on RARβ worked out at 39. Besides, on RARα, the “RARα/RARβ ratio (*)” value came to 23 and the RARα activity ratio stood at 1.7.

On to `CCC(CC)Oc1cc(C(=O)Nc2ccc(C(=O)O)c(C)c2)cc(Cl)c1OC` [AAA-102, 4-(3-Chloro-4-methoxy-5-(pentan-3-yloxy)benzamido)-2-methylbenzoic acid], for which, at RARγ, the RARγ activity ratio worked out at 833. The RARβ activity ratio on RARβ stood at 73. Moreover, on RARα, the “RARα/RARβ ratio (*)” value amounted to 33 and the RARα activity ratio came to 2.2.

Turning to `CCC(CC)Oc1cc(C(=O)Nc2ccc(C(=O)O)c(F)c2)cc(Cl)c1OC` [AAA-103, 4-(3-Chloro-4-methoxy-5-(pentan-3-yloxy)benzamido)-2-fluorobenzoic acid], on RARγ, the RARγ activity ratio is 583. Moreover, the RARβ activity ratio at RARβ is 57. Besides, at RARα, the “RARα/RARβ ratio (*)” value was 21 and the RARα activity ratio amounted to 2.6.

Take `COCCOc1cc(C(=O)Nc2ccc(C(=O)O)c(F)c2)cc(Cl)c1OC` [AAA-104, 4-(3-Chloro-4-methoxy-5-(2-methoxyethoxy)benzamido)-2-fluorobenzoic acid]: on RARγ, the RARγ activity ratio was determined as 5000. Also, the RARβ activity ratio on RARβ amounted to 10164. For the same molecule, on RARα, the “RARα/RARβ ratio (*)” value came to 535 and the RARα activity ratio was determined as 19.

Regarding `COc1c(Cl)cc(C(=O)Nc2ccc(C(=O)O)cc2)cc1OCC(C)(C)C` [AAA-105, 4-(3-Chloro-4-methoxy-5-(neopentyloxy)benzamido)benzoic acid], the RARγ activity ratio at RARγ is recorded as 941. In addition, on RARβ, the RARβ activity ratio is 8.4. At RARα, the “RARα/RARβ ratio (*)” value came to 13 and the RARα activity ratio was found to be 0.66.

For the molecule `CCOc1cc(C(=O)Nc2ccc(C(=O)O)cc2)cc(OCC)c1Br` [AAA-106, 4-(4-Bromo-3,5-diethoxybenzamido)benzoic acid], the RARγ activity ratio on RARγ was determined as 2326. Besides, the RARβ activity ratio at RARβ came to 2245. Moreover, on RARα, the “RARα/RARβ ratio (*)” value was 34 and the RARα activity ratio worked out at 66.

Take `CC(C)Oc1cc(C(=O)Nc2ccc(C(=O)O)cc2)cc(OC(C)C)c1Br` [AAA-107, 4-(4-Bromo-3,5-diisopropoxybenzamido)benzoic acid]: the RARγ activity ratio on RARγ came out at 2833. The RARβ activity ratio at RARβ was 647. In addition, at RARα, the “RARα/RARβ ratio (*)” value came to 135 and the RARα activity ratio is listed as 4.8.

For `CC(C)Oc1cc(C(=O)Nc2ccc(C(=O)O)c(F)c2)cc(OC(C)C)c1Br` [AAA-108, 4-(4-Bromo-3,5-diisopropoxybenzamido)-2-fluorobenzoic acid], the RARγ activity ratio on RARγ is on record as 32500. Further, on RARβ, the RARβ activity ratio amounted to 1727. Further, on RARα, the “RARα/RARβ ratio (*)” value is recorded as 338 and the RARα activity ratio is recorded as 5.1.

Consider `CC(C)Oc1cc(C(=O)Nc2ccc(C(=O)O)c(O)c2)cc(OC(C)C)c1Br` [AAA-109, 4-(4-Bromo-3,5-diisopropoxybenzamido)-2-hydroxybenzoic acid], for which the RARγ activity ratio at RARγ came to 792000. Besides, on RARβ, the RARβ activity ratio is listed as 1583. Also, on RARα, the “RARα/RARβ ratio (*)” value worked out at 396 and the RARα activity ratio was found to be 4.

On to `CCOc1cc(C(=O)Nc2ccc(C(=O)O)c(C)c2)cc(OCC)c1Br` [AAA-110, 4-(4-Bromo-3,5-diethoxybenzamido)-2-methylbenzoic acid], for which the RARγ activity ratio on RARγ was above 12000. Also, at RARβ, the RARβ activity ratio was found to be 1921. For the same molecule, on RARα, the “RARα/RARβ ratio (*)” value is 120 and the RARα activity ratio came out at 16.

Consider `Cc1cc(NC(=O)c2cc(OC(C)C)c(Br)c(OC(C)C)c2)ccc1C(=O)O` [AAA-111, 4-(4-Bromo-3,5-diisopropoxybenzamido)-2-methylbenzoic acid], for which the RARγ activity ratio on RARγ is on record as 50000. For the same molecule, the RARβ activity ratio at RARβ is reported as 712. For the same molecule, on RARα, the “RARα/RARβ ratio (*)” value is on record as 71 and the RARα activity ratio is on record as 10.

With `CC(C)Oc1cc(C(=O)Nc2ccc(C(=O)O)cc2)cc(OC(C)C)c1Cl` [AAA-112, 4-(4-Chloro-3,5-diisopropoxybenzamido)benzoic acid], the RARγ activity ratio at RARγ is recorded as 1268. The RARβ activity ratio on RARβ stood at 2464. Also, at RARα, the “RARα/RARβ ratio (*)” value is listed as 1212 and the RARα activity ratio was found to be 2.

Take `Cc1cc(NC(=O)c2cc(Cl)c(Cl)c(OC(C)C)c2)ccc1C(=O)O` [AAA-113, 4-(3,4-Dichloro-5-isopropoxybenzamido)-2-methylbenzoic acid]: the RARγ activity ratio at RARγ was found to be 11093. For the same molecule, the RARβ activity ratio at RARβ is listed as 900. Also, at RARα, the “RARα/RARβ ratio (*)” value is listed as 231 and the RARα activity ratio turned out to be 3.9.

Regarding `CCOc1cc(C(=O)Nc2ccc(C(=O)O)cc2)cc(OC(CC)CC)c1Cl` [AAA-114, 4-(4-Chloro-3-ethoxy-5-(pentan-3-yloxy)benzamido)benzoic acid], on RARγ, the RARγ activity ratio stood at 22759. Moreover, the RARβ activity ratio on RARβ is listed as 100. At RARα, the “RARα/RARβ ratio (*)” value is recorded as 23 and the RARα activity ratio amounted to 4.4.

As to `CCOc1cc(C(=O)Nc2ccc(C(=O)O)c(C)c2)cc(OC(CC)CC)c1Cl` [AAA-115, 4-(4-Chloro-3-ethoxy-5-(pentan-3-yloxy)benzamido)-2-methylbenzoic acid], the RARγ activity ratio at RARγ stood at 25172. In addition, at RARβ, the RARβ activity ratio is 150. On RARα, the “RARα/RARβ ratio (*)” value worked out at 58 and the RARα activity ratio is reported as 2.6.

Turning to `CCOc1cc(C(=O)Nc2ccc(C(=O)O)c(F)c2)cc(OC(CC)CC)c1Cl` [AAA-116, 4-(4-Chloro-3-ethoxy-5-(pentan-3-yloxy)benzamido)-2-fluorobenzoic acid], the RARγ activity ratio on RARγ stood at 55172. The RARβ activity ratio at RARβ was 208. Besides, at RARα, the “RARα/RARβ ratio (*)” value turned out to be 46 and the RARα activity ratio was found to be 4.5.

With `Cc1cc(NC(=O)c2cc(OC(C)C)c(Cl)c(OC(C)C)c2)ccc1C(=O)O` [AAA-117, 4-(4-Chloro-3,5-diisopropoxybenzamido)-2-methylbenzoic acid], the RARγ activity ratio at RARγ was determined as 29730. The RARβ activity ratio at RARβ was 273. For the same molecule, at RARα, the “RARα/RARβ ratio (*)” value turned out to be 68 and the RARα activity ratio is on record as 4.
